Experimental data reported in patent US20230242552A1, “Nitrogen-Containing Heterocyclic Compound, Preparation Method Therefor and Use Thereof” (280 Bio, Inc, priority 2022, published 2023).
pIC50: −log10 of the molar value.

Tests used:
Conditions in all cases: CellTiter Glo, 120 hours incubation
[1] = system: NCI-H358 (KRAS G12C mutation); assay: Proliferation inhibition measured by CTG, NCI-H358; type: cell-based, human
Method: (§1) NCI-H358 is a human non-small cell lung cancer cell line with KRAS G12C mutation; AGS is a gastric cancer cell line with KRAS G12D mutation; SW480 is a colon cancer cell lines with KRAS G12V mutation; A375 is a wild type malignant melanoma cell line. The proliferation inhibitory effect of the compounds on various mutations was evaluated by determining the proliferation inhibitory activity of the compounds on these cell lines.
(§2) The assay was conducted on either 384-well plates or 96-well plates. The procedures are as follows:
(§3) The cell suspensions were added to 384- or 96-well plates (384-well plate: 40 μL; 96-well plate: 100 μL) except for peripheral wells. The plates were incubated in a carbon dioxide incubator overnight. Prepared compounds (10 concentration gradients by serial 3-fold dilution) were added to the wells. The cell plates were incubated in a carbon dioxide incubator for 120 hours. CellTiter Glo reagent (384 well plate: 25 μL; 96 well plate: 100 μL) was added to the 384- or 96-well plates. The plates were shaken for 10 minutes away from light, and incubated for 10 minutes. The plates were read by EnVision system. Inhibition curves were plotted using XLFit and IC50 values were calculated. “IC50>10 μM” is denoted by “*”, “10 μM≥IC50>1 μM” is denoted by […] is denoted by “***”, “---” means no data.

[2] = system: AGS (gastric cancer cell line with KRAS G12D mutation); assay: Proliferation inhibition measured by CTG, AGS; type: cell-based
Method: as §1, §2, §3

[3] = system: SW480 (colon cancer cell lines with KRAS G12V mutation); assay: Proliferation inhibition measured by CTG, SW480; type: cell-based
Method: as §1, §2, §3

[4] = system: A375 (wild type malignant melanoma cell line); assay: Proliferation inhibition measured by CTG, A375; type: cell-based
Method: as §1, §2, §3

| Compound | pIC50 ([1]; Homo sapiens, NCI-H358, 120 h) | pIC50 [2] | pIC50 [3] | pIC50 ([4]; Homo sapiens, A-375, 120 h) | pIC50 [1] | pIC50 [4] | pIC50 ([2]; 120 h) | pIC50 ([3]; Homo sapiens, SW480, 120 h) |
| --- | --- | --- | --- | --- | --- | --- | --- | --- |
| CN1CCC[C@H]1COc1nc2c(c(N3CCc4cnccc4C3)n1)CCN(c1cccc3cccc(Cl)c13)C2 [Compound 1] | ≥ 6.00 |  |  | ≥ 6.00 |  |  |  |  |
| COc1cc2c(cn1)CCN(c1nc(OC[C@@H]3CCCN3C)nc3c1CCN(c1cccc4cccc(Cl)c14)C3)C2 [Compound 2] | 5.00 to 6.00 |  |  | 5.00 to 6.00 |  |  | 5.00 to 6.00 |  |
| CC1Cc2cnccc2CN1c1nc(OC[C@@H]2CCCN2C)nc2c1CCN(c1cccc3cccc(Cl)c13)C2 (some centres unmarked) [Compound 3] |  | ≥ 6.00 | ≥ 6.00 |  | ≥ 6.00 | ≥ 6.00 |  |  |
| CC1Cc2cncc(F)c2CN1c1nc(OC[C@@H]2CCCN2C)nc2c1CCN(c1cccc3cccc(Cl)c13)C2 (some centres unmarked) [Compound 4] |  |  |  |  |  |  | ≥ 6.00 | ≥ 6.00 |
| CC1Cc2cncc(F)c2CN1c1nc(OC[C@@H]2CCCN2C)nc2c1CCN(c1cc(O)cc3cccc(Cl)c13)C2 (some centres unmarked) [Compound 5] |  |  |  |  |  |  | ≥ 6.00 | ≥ 6.00 |
| CC1Cc2cnccc2CN1c1nc(OC[C@@H]2CCCN2C)nc2c1CCN(c1cc(O)cc3cccc(Cl)c13)C2 (some centres unmarked) [Compound 6] |  |  |  |  |  |  | ≥ 6.00 | ≥ 6.00 |
| C#Cc1c(F)ccc2cc(O)cc(N3CCc4c(nc(OC[C@@H]5CCCN5C)nc4N4Cc5c(F)cncc5CC4C)C3)c12 (some centres unmarked) [Compound 7] | 5.00 to 6.00 |  |  | 5.00 to 6.00 |  |  | ≥ 6.00 | 5.00 to 6.00 |
| CC1Cc2cncc(F)c2CN1c1nc(OC[C@@H]2CCCN2C)nc2c1CO[C@H](c1cccc3cccc(Cl)c13)C2 (some centres unmarked) [Compound 11] | 5.00 to 6.00 |  |  | 5.00 to 6.00 |  |  | ≥ 6.00 |  |
| C[C@H]1Cc2cncc(F)c2CN1c1nc(OC[C@@H]2CCCCN2C)nc2c1CCN(c1cccc3cccc(F)c13)C2 [Compound 12] | ≥ 6.00 |  |  | ≥ 6.00 |  |  | ≥ 6.00 | ≥ 6.00 |
| C[C@H]1Cc2cncc(F)c2CN1c1nc(OC[C@@H]2CCCN2C)nc2c1CCN(c1cncc3ccccc13)C2 [Compound 13] | 5.00 to 6.00 |  |  | < 5.00 |  |  | 5.00 to 6.00 | 5.00 to 6.00 |
| C[C@H]1Cc2cncc(F)c2CN1c1nc(OC[C@@H]2CCCN2C)nc2c1CCN(c1cccc3ncccc13)C2 [Compound 14] | 5.00 to 6.00 |  |  | 5.00 to 6.00 |  |  | 5.00 to 6.00 | 5.00 to 6.00 |
| C[C@H]1Cc2cncc(F)c2CN1c1nc(OC[C@@H]2CCCN2C)nc2c1CCN(c1cccc3cccc(F)c13)C2 [Compound 15] | ≥ 6.00 |  |  | 5.00 to 6.00 |  |  | ≥ 6.00 | ≥ 6.00 |
| C[C@H]1Cc2cncc(F)c2CN1c1nc(OC[C@@H]2CCCN2C)nc2c1CCN(c1ccnc3ccccc13)C2 [Compound 16] | 5.00 to 6.00 |  |  | 5.00 to 6.00 |  |  | 5.00 to 6.00 | 5.00 to 6.00 |
| C[C@H]1Cc2cncc(F)c2CN1c1nc(OC[C@@H]2CCCN2C)nc2c1CCN(c1cccc3cccnc13)C2 [Compound 17] | ≥ 6.00 |  |  | 5.00 to 6.00 |  |  | ≥ 6.00 | ≥ 6.00 |
| C[C@H]1Cc2cncc(F)c2CN1c1nc(OC[C@@H]2CCCN2C)nc2c1CCN(c1cccc3ccncc13)C2 [Compound 18] | 5.00 to 6.00 |  |  | 5.00 to 6.00 |  |  | 5.00 to 6.00 | 5.00 to 6.00 |
| C[C@H]1Cc2cncc(F)c2CN1c1nc(OC[C@@H]2CCCN2C)nc2c1CCN(c1cccc3cnccc13)C2 [Compound 19] | 5.00 to 6.00 |  |  | < 5.00 |  |  | 5.00 to 6.00 | 5.00 to 6.00 |
| C[C@H]1Cc2cncc(F)c2CN1c1nc(OC[C@@H]2CCCN2C)nc2cc(-c3cccc4cccc(Cl)c34)ccc12 [Compound 20] | 5.00 to 6.00 |  |  | 5.00 to 6.00 |  |  | ≥ 6.00 | ≥ 6.00 |
| C[C@H]1Cc2cncc(F)c2CN1c1nc(OC[C@@H]2CCCN2C)nc2cc(-c3cccc4cccc(F)c34)ccc12 [Compound 21] | 5.00 to 6.00 |  |  | 5.00 to 6.00 |  |  | ≥ 6.00 | 5.00 to 6.00 |
| C[C@H]1Cc2cncc(F)c2CN1c1nc(OC[C@H]2CCCN2C)nc2c1CCN(c1cccc3cccc(F)c13)C2 [Compound 22] | ≥ 6.00 |  |  | 5.00 to 6.00 |  |  | ≥ 6.00 | ≥ 6.00 |
| C[C@H]1Cc2cncc(F)c2CN1c1nc(OC[C@H]2CCCCN2C)nc2c1CCN(c1cccc3cccc(F)c13)C2 [Compound 23] | 5.00 to 6.00 |  |  | 5.00 to 6.00 |  |  | ≥ 6.00 | 5.00 to 6.00 |
| C[C@H]1Cc2cncc(F)c2CN1c1nc(OC[C@H]2COCCN2C)nc2c1CCN(c1cccc3cccc(F)c13)C2 [Compound 24] | 5.00 to 6.00 |  |  | < 5.00 |  |  | 5.00 to 6.00 | 5.00 to 6.00 |
| C[C@H]1Cc2cncc(F)c2CN1c1nc(OC[C@@H]2CN(C)CCN2C)nc2c1CCN(c1cccc3cccc(F)c13)C2 [Compound 25] | 5.00 to 6.00 |  |  | 5.00 to 6.00 |  |  | 5.00 to 6.00 | 5.00 to 6.00 |
| C[C@@H](CN(C)C)Oc1nc2c(c(N3Cc4c(F)cncc4C[C@@H]3C)n1)CCN(c1cccc3cccc(F)c13)C2 [Compound 26] | 5.00 to 6.00 |  |  | 5.00 to 6.00 |  |  | 5.00 to 6.00 | 5.00 to 6.00 |
| C[C@@H]1Cc2cncc(F)c2CN1c1nc(OC[C@@H]2CCCN2C)nc2cc(-c3ccc(F)c4sc(N)nc34)ccc12 [Compound 27] | ≥ 6.00 |  |  | ≥ 6.00 |  |  | ≥ 6.00 | ≥ 6.00 |
| C[C@@H]1Cc2cncc(F)c2CN1c1nc(OC[C@@H]2CCCCN2C)nc2c1CCN(c1cccc3cccc(F)c13)C2 [Compound 28] | ≥ 6.00 |  |  | ≥ 6.00 |  |  | ≥ 6.00 | ≥ 6.00 |
| C[C@@H]1Cc2cncc(F)c2CN1c1nc(O[C@@H](C)CN(C)C)nc2c1CCN(c1cccc3cccc(F)c13)C2 [Compound 29] | ≥ 6.00 |  |  | 5.00 to 6.00 |  |  | ≥ 6.00 | ≥ 6.00 |
| C[C@@H]1Cc2cncc(F)c2CN1c1nc(OC[C@H]2CCCCN2C)nc2c1CCN(c1cccc3cccc(F)c13)C2 [Compound 30] | ≥ 6.00 |  |  | ≥ 6.00 |  |  | ≥ 6.00 | ≥ 6.00 |
| C[C@@H]1Cc2cncc(F)c2CN1c1nc(OC[C@@H]2CCCN2C)nc2c1CCN(c1cncc3cccc(Cl)c13)C2 [Compound 34] |  |  |  | ≥ 6.00 |  |  | ≥ 6.00 |  |
| C[C@@H]1Cc2cncc(F)c2CN1c1nc(OC[C@@H]2CCCN2C)nc2c1CCN(c1cccc3cccc(F)c13)C2 [Compound 35] |  |  |  | ≥ 6.00 |  |  | ≥ 6.00 |  |
| C[C@@H]1Cc2cncc(F)c2CN1c1nc(OC[C@@H]2CCCCN2C)nc2c(F)c(-c3cccc4cccc(F)c34)ncc12 [Compound 36] |  |  |  |  |  |  | ≥ 6.00 |  |

The remaining lines, values ahead:

| pIC50 ([1]; Homo sapiens, NCI-H358, 120 h) | pIC50 [2] | pIC50 [3] | pIC50 ([4]; Homo sapiens, A-375, 120 h) | pIC50 [1] | pIC50 [4] | pIC50 ([2]; 120 h) | pIC50 ([3]; Homo sapiens, SW480, 120 h) | Compound |
| --- | --- | --- | --- | --- | --- | --- | --- | --- |
| 5.00 to 6.00 | ≥ 6.00 | 5.00 to 6.00 | 5.00 to 6.00 |  |  |  |  | CC1Cc2cncc(F)c2CN1c1nc(OC[C@@H]2CCCN2C)nc2c1CCN(c1cccc3cccc(Cl)c13)C2 (single isomer, unassigned) [Compound 4-1] |
|  | ≥ 6.00 | ≥ 6.00 |  | ≥ 6.00 | ≥ 6.00 |  |  | CC1Cc2cncc(F)c2CN1c1nc(OC[C@@H]2CCCN2C)nc2c1CCN(c1cccc3cccc(Cl)c13)C2 (single isomer, unassigned) [Compound 4-2] |
|  | 5.00 to 6.00 |  |  | 5.00 to 6.00 | 5.00 to 6.00 |  |  | CC1Cc2cncc(F)c2CN1c1nc(OC[C@@H]2CCCN2C)nc2c1CO[C@H](c1cccc3cccc(Cl)c13)C2 (single isomer, unassigned) [Compound 11-1] |
|  | ≥ 6.00 |  |  | 5.00 to 6.00 | 5.00 to 6.00 |  |  | CC1Cc2cncc(F)c2CN1c1nc(OC[C@@H]2CCCN2C)nc2c1CO[C@H](c1cccc3cccc(Cl)c13)C2 (single isomer, unassigned) [Compound 11-2] |
| 5.00 to 6.00 |  |  | 5.00 to 6.00 |  |  | 5.00 to 6.00 | 5.00 to 6.00 | CC1Cc2cnccc2CN1c1nc(OC[C@@H]2CCCN2C)nc2c1CCN(c1cccc3cccc(Cl)c13)C2 (some centres unmarked) [Compound 3-1] |
|  | ≥ 6.00 | ≥ 6.00 |  | ≥ 6.00 | ≥ 6.00 |  |  | CC1Cc2cnccc2CN1c1nc(OC[C@@H]2CCCN2C)nc2c1CCN(c1cccc3cccc(Cl)c13)C2 (some centres unmarked) [Compound 3-2] |
| ≥ 6.00 |  |  | ≥ 6.00 |  |  |  |  | CC1Cc2cncc(F)c2CN1c1nc(OC[C@@H]2CCCN2C)nc2c1CCN(c1cc(O)cc3cccc(Cl)c13)C2 (some centres unmarked) [Compound 5-1] |
|  |  |  |  | ≥ 6.00 | ≥ 6.00 |  |  | CC1Cc2cncc(F)c2CN1c1nc(OC[C@@H]2CCCN2C)nc2c1CCN(c1cc(O)cc3cccc(Cl)c13)C2 (some centres unmarked) [Compound 5-2] |
| ≥ 6.00 |  |  | ≥ 6.00 |  |  | ≥ 6.00 | ≥ 6.00 | CC1Cc2cncc(F)c2CN1c1nc(OC[C@@H]2CCCCN2C)nc2c1CCN(c1cccc3cccc(Cl)c13)C2 (some centres unmarked) [Compound 9-1] |
|  | ≥ 6.00 | ≥ 6.00 |  | ≥ 6.00 | ≥ 6.00 |  |  | CC1Cc2cncc(F)c2CN1c1nc(OC[C@@H]2CCCCN2C)nc2c1CCN(c1cccc3cccc(Cl)c13)C2 (some centres unmarked) [Compound 9-2] |
